As usually defined, the MIC is the lowest concentration found to suppress growth.

In brackets after ≈: the same amount, converted by molar mass.

The source of these data is ChEMBL document CHEMBL4699471, “Design and synthesis of purine connected piperazine derivatives as novel inhibitors of Mycobacterium tuberculosis” (2020).

For this test, the system named is Mycobacterium tuberculosis. The experiment in a line: Antimycobacterial activity against Mycobacterium tuberculosis H37Rv assessed as inhibition of bacterial growth by MABA assay. Format: functional.
On to `CC#CCn1c(N2CCN(C(=O)c3nccnc3Cl)CC2)nc2c1c(=O)n(Cc1ccc(F)c(F)c1)c(=O)n2C`, for which the MIC turned out to be 44 µM (≈ 25 µg/mL).

As for `CC#CCn1c(N2CCN(C(=S)Nc3c(F)cccc3Cl)CC2)nc2c1c(=O)n(Cc1ccc(F)c(F)c1)c(=O)n2C`, the MIC amounted to 40.6 µM (≈ 25 µg/mL). `CC#CCn1c(N2CCN(C(=O)c3cccc4ccccc34)CC2)nc2c1c(=O)n(Cc1ccc(F)c(F)c1)c(=O)n2C`: the MIC came out at 53.3 µM (≈ 31 µg/mL). Turning to `CC#CCn1c(N2CCN(C(=O)C3Cc4ccccc4N3)CC2)nc2c1c(=O)n(Cc1ccc(F)c(F)c1)c(=O)n2C` (stereo not drawn), the MIC came to 43.6 µM (≈ 25 µg/mL). Next, `CC#CCn1c(N2CCN(C(=O)c3csc(Br)n3)CC2)nc2c1c(=O)n(Cc1ccc(F)c(F)c1)c(=O)n2C`: 40.5 µM (≈ 25.1 µg/mL). In the case of `CC#CCn1c(N2CCN(C(=O)c3cccc(F)c3)CC2)nc2c1c(=O)n(Cc1ccc(F)c(F)c1)c(=O)n2C` it was 45.4 µM (≈ 25 µg/mL); in that of `CC#CCn1c(N2CCN(C(=S)Nc3ccc(Cl)cc3)CC2)nc2c1c(=O)n(Cc1ccc(F)c(F)c1)c(=O)n2C`, 34.5 µM (≈ 20.6 µg/mL); in that of `CC#CCn1c(N2CCN(C(=O)Nc3ccccc3Cl)CC2)nc2c1c(=O)n(Cc1ccc(F)c(F)c1)c(=O)n2C`, 49.2 µM (≈ 28.7 µg/mL). Next, `CC#CCn1c(N2CCN(C(=S)Nc3ccccc3Br)CC2)nc2c1c(=O)n(Cc1ccc(F)c(F)c1)c(=O)n2C`: 39 µM (≈ 25.1 µg/mL). Regarding `CC#CCn1c(N2CCN(S(=O)(=O)c3ccccc3)CC2)nc2c1c(=O)n(Cc1ccc(F)c(F)c1)c(=O)n2C`, the MIC was 44 µM (≈ 25 µg/mL).

For the compound `CC#CCn1c(N2CCN(C(=O)Nc3ccc(C(F)(F)F)cc3)CC2)nc2c1c(=O)n(Cc1ccc(F)c(F)c1)c(=O)n2C`, the MIC is 5.08 µM (≈ 3.13 µg/mL). As to `CC#CCn1c(N2CCN(C(=O)C3CCC3)CC2)nc2c1c(=O)n(Cc1ccc(F)c(F)c1)c(=O)n2C`, the MIC was 49 µM (≈ 25 µg/mL). In the case of `CC#CCn1c(N2CCN(C(=O)Nc3cccc(C(F)(F)F)c3)CC2)nc2c1c(=O)n(Cc1ccc(F)c(F)c1)c(=O)n2C` it was 20.3 µM (≈ 12.5 µg/mL); in that of `CC#CCn1c(N2CCN(C(=O)c3cccnc3C(F)(F)F)CC2)nc2c1c(=O)n(Cc1ccc(F)c(F)c1)c(=O)n2C`, 41.6 µM (≈ 25 µg/mL).

Consider `CC#CCn1c(N2CCN(C(=S)Nc3cccc(Cl)c3)CC2)nc2c1c(=O)n(Cc1ccc(F)c(F)c1)c(=O)n2C`, for which the MIC was 7.17 µM (≈ 4.29 µg/mL). On to `CC#CCn1c(N2CCN(C(=O)c3c(F)cc(OC)cc3F)CC2)nc2c1c(=O)n(Cc1ccc(F)c(F)c1)c(=O)n2C`, for which the MIC was found to be 41.8 µM (≈ 25 µg/mL). For the compound `CC#CCn1c(N2CCN(C(=O)C3CCC(C(F)(F)F)CC3)CC2)nc2c1c(=O)n(Cc1ccc(F)c(F)c1)c(=O)n2C` (stereo not drawn), the MIC stood at 16.4 µM (≈ 9.97 µg/mL). Regarding `CC#CCn1c(N2CCN(C(=O)Nc3ccc(SC)cc3)CC2)nc2c1c(=O)n(Cc1ccc(F)c(F)c1)c(=O)n2C`, the minimal inhibitory concentration (MIC) is 10.3 µM (≈ 6.13 µg/mL). In the case of `CC#CCn1c(N2CCN(C(=O)C34CC5CC(CC(C5)C3)C4)CC2)nc2c1c(=O)n(Cc1ccc(F)c(F)c1)c(=O)n2C` it was 43.4 µM (≈ 25.6 µg/mL); in that of `CC#CCn1c(N2CCN(C(=O)c3ccc(C(F)(F)F)cc3)CC2)nc2c1c(=O)n(Cc1ccc(F)c(F)c1)c(=O)n2C`, 51.5 µM (≈ 30.9 µg/mL); in that of `CC#CCn1c(N2CCN(C(=O)C3CCCCN3C(=O)OC(C)(C)C)CC2)nc2c1c(=O)n(Cc1ccc(F)c(F)c1)c(=O)n2C` (stereo not drawn), 39.1 µM (≈ 25 µg/mL). In the case of `CC#CCn1c(N2CCN(C(=O)c3ccccc3C(F)(F)F)CC2)nc2c1c(=O)n(Cc1ccc(F)c(F)c1)c(=O)n2C` it was 41.6 µM (≈ 25 µg/mL).

For `CC#CCn1c(N2CCN(C(=O)Nc3ccc(Cl)cc3)CC2)nc2c1c(=O)n(Cc1ccc(F)c(F)c1)c(=O)n2C`, the MIC worked out at 41 µM (≈ 23.9 µg/mL). Next, `CC#CCn1c(N2CCN(S(=O)(=O)c3cccc(Cl)c3)CC2)nc2c1c(=O)n(Cc1ccc(F)c(F)c1)c(=O)n2C`: 12.5 µM (≈ 7.51 µg/mL); `CC#CCn1c(N2CCN(C(=O)Cc3ccc(F)cc3)CC2)nc2c1c(=O)n(Cc1ccc(F)c(F)c1)c(=O)n2C`: 44.3 µM (≈ 25 µg/mL). In the case of `CC#CCn1c(N2CCN(C(=O)COc3ccccc3)CC2)nc2c1c(=O)n(Cc1ccc(F)c(F)c1)c(=O)n2C`, the MIC is 44.5 µM (≈ 25 µg/mL). On to `CC#CCn1c(N2CCN(C(=S)Nc3ccccc3Cl)CC2)nc2c1c(=O)n(Cc1ccc(F)c(F)c1)c(=O)n2C`, for which the MIC came to 41.9 µM (≈ 25 µg/mL). Next, `C=CCNC(=O)N1CCN(c2nc3c(c(=O)n(Cc4ccc(F)c(F)c4)c(=O)n3C)n2CC#CC)CC1`: 52.4 µM (≈ 26.8 µg/mL); `CC#CCn1c(N2CCN(C(=O)c3sccc3Cl)CC2)nc2c1c(=O)n(Cc1ccc(F)c(F)c1)c(=O)n2C`: 43.7 µM (≈ 25 µg/mL). In the case of `CC#CCn1c(N2CCN(C(=O)CCc3ccc(F)cc3)CC2)nc2c1c(=O)n(Cc1ccc(F)c(F)c1)c(=O)n2C` it was 43.2 µM (≈ 25 µg/mL); in that of `O=C(O)c1cn(C2CC2)c2cc(N3CCNCC3)c(F)cc2c1=O` [CIPROFLOXACIN], 0.94 µM (≈ 0.311 µg/mL). Next, `CC[C@@H](CO)NCCN[C@@H](CC)CO` [ETHAMBUTOL]: 7.63 µM (≈ 1.56 µg/mL); `NNC(=O)c1ccncc1` [ISONIAZID]: 0.66 µM (≈ 0.0905 µg/mL).
